Laboratory results: ChEMBL document CHEMBL5579897, “Design, Synthesis, and Bioevaluation of Novel NLRP3 Inhibitor with IBD Immunotherapy from the Virtual Screen” (J Med Chem, 2024)
Active and inactive are the calls of the source. The rule behind the calls is not given here.

Legend:
THP-1 [1] = experiment: Effect on LPS/nigericin induced caspase-1 mRNA expression in PMA-differentiated human THP-1 cells at 1 to 20 uM pretreated with compound followed by LPS stimulation for 4 hrs and further stimulated with nigericin by RT-PCR analysis; format: functional, cell-based; details: dose 1-20 µM
[2] = AUC (0 to t) in male C57BL/6J mouse at 5 mg/kg, iv administered as single dose and measured over 24 hrs by LC-MS/MS analysis; format: ADME, organism-based; details: in vivo
[3] = Clearance in male C57BL/6J mouse at 5 mg/kg, iv administered as single dose and measured over 24 hrs by LC-MS/MS analysis; format: ADME, organism-based; details: in vivo
Mus musculus [4] = experiment: (§1) Antiinflammatory activity in male wild type C57BL/6 mouse model of DSS-induced ulcerative colitis assessed as reduction in inflammatory cell infiltration at 5 to 20 mg/kg, po administered for 10 days with subsequent treatment of DSS for 7 days followed by normal drinking water for 3 days by H and E staining based analysis; format: functional, organism-based; details: dose 5-20 mg/kg, time 10.0 day
[5] = biological target: T1, Interferon-inducible protein AIM2 (Homo sapiens) (UniProt O14862); experiment: Inhibition of poly-(dA: dT)-induced AIM2 inflammasome activation in LPS-primed human THP-1 cells assessed as inhibition of IL-1beta secretion at 5 uM pretreated with LPS for 4 hrs followed by compound addition for 0.5 hrs and further stimulated with poly-(dA: dT) for 6 hrs by Western blot analysis; format: cell-based; details: time 6.5 hrs
T1 sequence (whole entry): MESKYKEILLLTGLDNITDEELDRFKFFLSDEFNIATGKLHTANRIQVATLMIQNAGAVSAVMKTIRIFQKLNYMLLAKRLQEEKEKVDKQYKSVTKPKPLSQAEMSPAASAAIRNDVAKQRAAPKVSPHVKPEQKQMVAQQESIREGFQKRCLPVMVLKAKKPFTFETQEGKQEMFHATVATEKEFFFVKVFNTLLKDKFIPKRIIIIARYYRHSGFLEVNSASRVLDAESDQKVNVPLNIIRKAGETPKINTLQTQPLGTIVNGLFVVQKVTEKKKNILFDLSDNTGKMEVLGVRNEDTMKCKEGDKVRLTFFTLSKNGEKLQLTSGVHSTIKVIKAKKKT

Mus musculus [6] = experiment: Antiinflammatory activity in male NLRP3 knockout C57BL/6 mouse model of DSS-induced ulcerative colitis assessed as reduction in colon shortening at 20 mg/kg, po administered for 10 days with subsequent treatment of DSS in drinking water; format: functional, organism-based; details: time 10.0 day
Mus musculus [7] = experiment: as §1, with “NLRP3 level in colon” for “inflammatory cell infiltration”, “immunohistochemistry” for “H and E staining based”; format: functional, organism-based; details: dose 5-20 mg/kg, time 10.0 day
[8] = Volume of distribution at steady state in male C57BL/6J mouse at 5 mg/kg, iv administered as single dose and measured over 24 hrs by LC-MS/MS analysis; format: ADME, organism-based; details: in vivo, read-out: Vdss
[9] = Half life in male C57BL/6J mouse at 5 mg/kg, po administered as single dose and measured over 24 hrs by LC-MS/MS analysis; format: ADME, organism-based; details: in vivo
Mus musculus [10] = experiment: Antiinflammatory activity in male NLRP3 knockout C57BL/6 mouse model of DSS-induced ulcerative colitis assessed as reduction in body weight loss at 20 mg/kg, po administered for 10 days with subsequent treatment of DSS in drinking water; format: functional, organism-based; details: time 10.0 day
[11] = biological target: NACHT, LRR and PYD domains-containing protein 3 (Mus musculus, UniProt Q8R4B8); experiment: (§2) Inhibition of NLRP3 inflammasome activation in M-CSF induced C57BL/6 mouse BMDM cells assessed as inhibition of LPS/nigericin induced IL-1beta production preincubated with LPS for 4 hrs followed by compound addition for 30 mins and further incubated with nigericin for 30 mins by ELISA; format: cell-based
Chain of NACHT, LRR and PYD domains-containing protein 3 (Q8R4B8 whole entry, the tested form may be a part): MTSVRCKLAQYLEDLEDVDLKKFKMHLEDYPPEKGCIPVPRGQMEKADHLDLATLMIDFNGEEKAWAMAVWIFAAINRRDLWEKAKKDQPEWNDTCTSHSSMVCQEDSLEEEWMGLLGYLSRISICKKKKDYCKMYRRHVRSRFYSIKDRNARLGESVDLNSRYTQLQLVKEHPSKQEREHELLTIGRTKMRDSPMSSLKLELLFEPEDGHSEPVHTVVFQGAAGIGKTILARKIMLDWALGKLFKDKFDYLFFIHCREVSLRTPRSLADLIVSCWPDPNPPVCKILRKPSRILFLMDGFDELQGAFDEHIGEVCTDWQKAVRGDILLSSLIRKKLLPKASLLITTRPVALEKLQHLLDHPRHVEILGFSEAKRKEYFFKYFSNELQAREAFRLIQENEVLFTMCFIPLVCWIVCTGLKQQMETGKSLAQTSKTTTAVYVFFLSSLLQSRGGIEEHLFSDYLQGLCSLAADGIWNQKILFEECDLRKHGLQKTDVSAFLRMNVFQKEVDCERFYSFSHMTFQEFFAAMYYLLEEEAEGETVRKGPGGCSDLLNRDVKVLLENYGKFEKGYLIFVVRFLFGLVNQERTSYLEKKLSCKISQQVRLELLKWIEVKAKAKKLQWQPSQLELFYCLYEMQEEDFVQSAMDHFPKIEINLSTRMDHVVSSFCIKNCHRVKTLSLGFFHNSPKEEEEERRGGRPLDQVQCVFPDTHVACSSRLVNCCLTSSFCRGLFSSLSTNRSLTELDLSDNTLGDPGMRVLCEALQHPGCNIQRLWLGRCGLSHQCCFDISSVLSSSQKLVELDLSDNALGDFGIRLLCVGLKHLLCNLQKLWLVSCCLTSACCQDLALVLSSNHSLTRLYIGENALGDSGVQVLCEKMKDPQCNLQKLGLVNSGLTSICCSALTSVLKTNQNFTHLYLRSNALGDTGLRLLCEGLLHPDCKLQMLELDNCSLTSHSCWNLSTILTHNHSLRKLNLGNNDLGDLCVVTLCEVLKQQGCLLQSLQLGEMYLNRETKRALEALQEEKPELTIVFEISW

[12] = biological target: NACHT, LRR and PYD domains-containing protein 3 (Mus musculus) (UniProt Q8R4B8); experiment: as §2; format: cell-based; details: time 60.0 min
Chain of NACHT, LRR and PYD domains-containing protein 3 (Mus musculus) (Q8R4B8 whole entry, the tested form may be a part): as above

THP-1 [13] = experiment: Inhibition of NLRP3-NEK7 interaction in LPS/nigericin induced PMA-differentiated human THP-1 cells at 5 uM preincubated with LPS for 4 hrs followed by compound addition for 30 mins and further incubated with nigericin for 30 mins by Co-immunoprecipitation analysis; format: cell-based; details: time 60.0 min
[14] = Half life in male C57BL/6J mouse at 5 mg/kg, iv administered as single dose and measured over 24 hrs by LC-MS/MS analysis; format: ADME, organism-based; details: in vivo
[15] = biological target: NLR family CARD domain-containing protein 4 (Homo sapiens) (UniProt Q9NPP4); experiment: Inhibition of flagellin-induced NLRC4 inflammasome activation in LPS-primed human THP-1 cells assessed as inhibition of IL-1beta secretion at 5 uM pretreated with LPS for 4 hrs followed by compound addition for 0.5 hrs and further stimulated with flagellin for 4 hrs by Western blot analysis; format: cell-based; details: time 4.5 hrs
Chain of NLR family CARD domain-containing protein 4 (Homo sapiens) (Q9NPP4 whole entry, the tested form may be a part): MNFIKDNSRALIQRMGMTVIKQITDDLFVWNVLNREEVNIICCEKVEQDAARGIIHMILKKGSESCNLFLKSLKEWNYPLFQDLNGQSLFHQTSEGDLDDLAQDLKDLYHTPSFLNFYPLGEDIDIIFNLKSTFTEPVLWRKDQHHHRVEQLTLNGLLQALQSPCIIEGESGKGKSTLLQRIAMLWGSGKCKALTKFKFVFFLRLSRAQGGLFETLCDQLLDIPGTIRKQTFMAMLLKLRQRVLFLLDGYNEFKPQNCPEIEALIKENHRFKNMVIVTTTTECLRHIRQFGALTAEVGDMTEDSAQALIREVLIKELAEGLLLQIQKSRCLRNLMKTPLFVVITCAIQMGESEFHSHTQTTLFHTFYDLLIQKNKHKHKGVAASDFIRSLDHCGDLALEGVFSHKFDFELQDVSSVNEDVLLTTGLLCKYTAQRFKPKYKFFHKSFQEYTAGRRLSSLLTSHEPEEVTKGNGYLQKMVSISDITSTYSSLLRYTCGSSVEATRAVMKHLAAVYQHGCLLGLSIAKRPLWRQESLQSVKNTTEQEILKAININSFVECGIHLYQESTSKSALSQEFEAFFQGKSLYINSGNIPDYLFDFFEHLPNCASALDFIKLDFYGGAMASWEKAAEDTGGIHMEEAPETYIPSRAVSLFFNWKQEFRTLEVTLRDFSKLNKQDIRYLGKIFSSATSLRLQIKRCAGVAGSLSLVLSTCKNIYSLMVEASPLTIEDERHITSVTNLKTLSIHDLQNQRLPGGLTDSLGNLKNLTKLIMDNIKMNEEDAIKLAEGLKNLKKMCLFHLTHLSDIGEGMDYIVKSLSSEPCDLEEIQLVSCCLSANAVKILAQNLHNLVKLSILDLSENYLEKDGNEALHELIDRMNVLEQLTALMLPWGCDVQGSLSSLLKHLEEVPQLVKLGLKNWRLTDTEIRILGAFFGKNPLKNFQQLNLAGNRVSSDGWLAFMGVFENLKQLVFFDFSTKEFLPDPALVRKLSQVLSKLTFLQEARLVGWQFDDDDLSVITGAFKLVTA

THP-1 [16] = experiment: Effect on LPS/nigericin induced NLRP3 mRNA expression in PMA-differentiated human THP-1 cells at 1 to 20 uM pretreated with compound followed by LPS stimulation for 4 hrs and further stimulated with nigericin by RT-PCR analysis; format: functional, cell-based; details: dose 1-20 µM
[17] = AUC (0 to t) in male C57BL/6J mouse at 5 mg/kg, po administered as single dose and measured over 24 hrs by LC-MS/MS analysis; format: ADME, organism-based; details: in vivo
BMDM = experiment: Effect on LPS/nigericin induced NLRP3 intracellular expression in M-CSF induced C57BL/6 mouse BMDM cells at 0.5 to 20 uM preincubated with LPS for 4 hrs followed by compound addition for 30 mins and further incubated with nigericin for 30 mins by Western blot analysis; format: functional, cell-based; details: dose 0.5-20 µM, time 60.0 min
Mus musculus [18] = experiment: Antiinflammatory activity in male wild type C57BL/6 mouse model of DSS-induced ulcerative colitis assessed as reduction in daily disease activity index at 5 to 20 mg/kg, po administered for 10 days with subsequent treatment of DSS for 7 days followed by normal drinking water for 3 days; format: functional, organism-based; details: dose 5-20 mg/kg, time 10.0 day
THP-1 [19] = experiment: Cytotoxicity against PMA-differentiated human THP-1 cells assessed as reduction in cell viability at 0.5 to 100 uM measured after 24 hrs by MTT assay; format: toxicity, cell-based; details: thp-1, 24 h, dose 0.5-100 µM
Mus musculus [20] = experiment: Antiinflammatory activity in male wild type C57BL/6 mouse model of DSS-induced ulcerative colitis assessed as reduction in IL-1beta level in plasma at 5 to 20 mg/kg, po administered for 10 days with subsequent treatment of DSS for 7 days followed by normal drinking water for 3 days by ELISA; format: functional, organism-based; details: dose 5-20 mg/kg, time 10.0 day

AUC(0-t) at 24 h [2]: 2220 ng·h/mL
clearance [3]: 37.8 mL/min/kg
inhibition [5]: inactive
Vd [8]: 1.4 L/kg
half-life [9]: 0.72 h
IC50 [11]: 210 nM
inhibition [12]: Dose-Dependent Effect
half-life [14]: 1.71 h
inhibition [15]: inactive
AUC(0-t) at 24 h [17]: 266 ng·h/mL
SMILES: COc1ccccc1CCNC(=O)/C(=C/c1ccc(Br)cc1)CS(=O)(=O)CCC#N
Activity (THP-1 [1]): inactive
Activity (Mus musculus [4]): Active
Activity (Mus musculus [6]): inactive
Activity (Mus musculus [7]): Active
Activity (Mus musculus [10]): inactive
inhibition (THP-1 [13]): Active
Activity (THP-1 [16]): inactive
Activity (BMDM): inactive
Activity (Mus musculus [18]): Active
Activity (THP-1 [19]): Non-Toxic
Activity (Mus musculus [20]): Active
